The values that follow come from publication PMC10935334, “Chemotherapeutic Activities of New η^6-p-Cymene Ruthenium(II) and Osmium(II) Complexes with Chelating SS and Tridentate SNS Ligands” (Molecules, 2024).

The structures appear in SMILES notation.

Data set [1] has as its system human embryonic kidney (HEK293) cell line. The data set can be described thus: MTT cell viability (cytotoxicity) assay in HEK293 cells. It counts as cell-based. The conditions noted are these: 48 h incubation, non-tumor HEK293 cells, concentration needed to cause 50% net cell mortality. The source says: The cytotoxicity of the arene-Ru and arene-Os complexes was investigated against HeLa and Hek293 cells. The former cell is a cervical cancer line, while the latter is a non-tumor kidney cell line used to examine tumor selectivity. […] These findings imply that the higher stability of the chelating (SS) and the pincer (SNS) ligand architectures in the complexes improve the biological (anti-proliferative) activity by rendering ligand dissociation less likely to occur under physiological conditions. The pincer (SNS) osmium complexes were more cytotoxic than their ruthenium analogues. […] These allow for more efficient interactions with biological target molecules. Osmium typically forms coordinative bonds with more inert bonds than in the analogous lighter homolog, ruthenium. Due to their relative inertness and sufficient stability under physiological conditions, osmium complexes are considered exciting alternatives to ruthenium-based anti-cancer agents. However, there was no apparent general pattern in the reactivity of the two metal centers and the isostructural ligand. […]
(§1) The cytotoxicity of the compounds was examined in the HeLa and HEK293 cells using the MTT assay. […] Absorbance measurements were then taken at 570 nm using a Mindray MR-96A microplate reader (Vacutec, Hamburg, Germany).

Data set [2] deals with cervical carcinoma (HeLa) cell line. In words: MTT cell viability (cytotoxicity) assay in HeLa cells. In kind it is cell-based, human.
Text: The cytotoxicity of the arene-Ru and arene-Os complexes was investigated against HeLa and Hek293 cells. The former cell is a cervical cancer line, while the latter is a non-tumor kidney cell line used to examine tumor selectivity. […] Due to their relative inertness and sufficient stability under physiological conditions, osmium complexes are considered exciting alternatives to ruthenium-based anti-cancer agents.
Phosphate-buffered saline tablets (PBS), 3-(4,5-dimethylthiazol-2-yl)-2.5-diphenyltetrazolium bromide (MTT), and DMSO were obtained from Merck (Darmstadt, Germany). The human embryonic kidney (HEK293) and cervical carcinoma (HeLa) cell lines were sourced from the American Type Culture Collection (ATCC) (Manassas, VA, USA). […]
as §1

What is called melting point is the temperature of the solid-liquid transition. As to `Cn1ccn(CCn2ccn(C)c2=S)c1=S`, the melting point fell in the range of 195 to 197 °C. In turn, `CCn1ccn(CCn2ccn(CC)c2=S)c1=S` gave a melting point of 131 to 133 °C.

`CCCn1ccn(CCn2ccn(CCC)c2=S)c1=S` returned a melting point of 91 to 92 °C. For the compound `Cn1ccn(Cn2ccn(C)c2=S)c1=S`, the melting point is 194 to 197 °C. Regarding `CCn1ccn(Cn2ccn(CC)c2=S)c1=S`, the melting point fell in the range of 175 to 177 °C. Consider `Cn1ccn(Cc2cccc(Cn3ccn(C)c3=S)n2)c1=S`, for which the melting point was 190 to 193 °C. In turn, `Cn1ccn(-c2cccc(-n3ccn(C)c3=S)n2)c1=S` showed a melting point of 270 to 273 °C. For the compound `CC(C)n1ccn(-c2cccc(-n3ccn(C(C)C)c3=S)n2)c1=S`, the melting point was in the range of 189 to 190 °C. Broadly, the IC50 is the concentration that inhibits the measured activity by half. A higher IC50 goes with lower potency. Regarding `O=c1[nH]cc(F)c(=O)[nH]1` [5-Fluorouracil, reference compound], the IC50 in data set [1] amounted to 180 ± 20 µM; in data set [2] (Homo sapiens, MTT, 48 h incubation, HeLa cervical cancer cells, concentration needed to cause 50% net cell mortality), 87 ± 15 µM. Further, the “Selectivity between tumor cells (HeLa) and normal cells (Hek293)” value in data set [2] (HeLa vs Hek293, MTT assay) is on record as “selective toward the tumor cells”.
